The subject of assay [1] is HCV replicon in Huh7 cells. Nature of the assay: HCV replicon cell-based assay (FRET). Conditions: Hepatitis C virus, Huh-7; replicon, activity range; read-out: EC50 a, b, c (Activity Table). Set-up: species or system HCV strain 1B. An excerpt:
HCV Replicon Cell-based Assay
An HCV replicon whole cell system was established as described by Lohmann V, Korner F, Koch J, Herian U, Theilmann L, Bartenschlager R., Science 285(5424): 110-3 (1999). This system enabled us to evaluate the effects of our HCV Protease compounds on HICV RNA replication. Briefly, using the HCV strain 1B sequence described in the Lohmann paper (Assession number: AJ238799), an HCV cDNA was generated encoding the 5′ internal ribosome entry site (IRES), the neomycin resistance gene, the EMCV (encephalomyocarditis virus)-IRES and the HCV nonstructural proteins, NS3-NS5B, and 3′ non-translated region (NTR). In vitro transcripts of the cDNA were transfected into the human hepatoma cell line, Huh7. […] Resulting cell lines were characterized for positive and negative strand RNA production and protein production over time.
Huh7 cells, constitutively expressing the HCV replicon, were grown in Dulbecco's Modified Eagle Media (DMEM) containing 10% Fetal calf serum (FCS) and 1 mg/ml G418 (Gibco-BRL). Cells were seeded the night before (1.5×10^4 cells/well) in 96-well tissue-culture sterile plates. Compound and no compound controls were prepared in DMEM containing 4% FCS, 1:100 Penicillin/Streptomysin, 1:100 L-glutamine and 5% DMSO in the dilution plate (0.5% DMSO final concentration in the assay). Compound/DMSO mixes were added to the cells and incubated for 4 days at 37° C. After 4 days, plates were rinsed thoroughly with Phosphate-Buffered Saline (PBS) (3 times 150 μl). The cells were lysed with 25 μl of a lysis assay reagent containing the FRET peptide (RET S1, as described for the in vitro enzyme assay). The lysis assay reagent was made from 5× cell Luciferase cell culture lysis reagent(Promega #E153A) diluted to 1× with distilled water, NaCl added to 150 mM final, the FRET peptide diluted to 10 μM final from a 2 mM stock in 100% DMSO. The plate was then placed into the Cytofluor 4000 instrument which had been set to 340 nm excitation/490 emission, automatic mode for 21 cycles and the plate read in a kinetic mode. EC50 determinations were carried out as described for the IC50 determinations.

Assay [2] addresses T1, HCV NS3/4A protease complex (BMS strain) (Hepatitis C virus genotype 1a, UniProt P27958, C1454S).
T1 construct: HCV NS3/4A protease complex (amino acids 1027 to 1711); inferred from pET21b vector and Ni-NTA purification; made in house; host or cells: Escherichia coli BL21 (DE3), pET21b
Nature of the assay: Recombinant HCV NS3/4A protease complex FRET peptide assay, BMS strain. Format: biochemical, HCV genotype 1a. Conditions: NS3/4A BMS Strain, activity range; read-out: IC50 a, b, c (Activity Table). An excerpt: Recombinant HCV NS3/4A Protease Complex FRET Peptide Assay
The purpose of this in vitro assay was to measure the inhibition of HCV NS3 protease complexes, derived from the BMS, H77C or J4l6S strains, as described below, by compounds of the present invention. This assay provides an indication of how effective compounds of the present invention would be in inhibiting HCV proteolytic activity.
Serum from an HCV-infected patient was obtained from Dr. T. Wright, San Francisco Hospital. An engineered full-length cDNA template of the HCV genome (BMS strain) was constructed from DNA fragments obtained by reverse transcription-PCR (RT-PCR) of serum RNA and using primers selected on the basis of homology between other genotype la strains. From the determination of the entire genome sequence, a genotype la was assigned to the HCV isolate according to the classification of Simmonds et al. (See P Simmonds, K A Rose, S Graham, S W Chan, F McOmish, B C Dow, E A Follett, P L Yap and H Marsden, J. Clin. Microbiol., 31(6), 1493-1503 (1993)). […] The infectious clones, H77C (1a genotype) and J4 L6S (1b genotype) were obtained from R. Purcell (NIH) and the sequences are published in Genbank (AAB67036, see Yanagi, M., Purcell, R. H., Emerson, S. U. and Bukh, J. Proc. Natl. Acad. Sci. U.S.A. 94(16),8738-8743 (1997); AF054247, see Yanagi, M., St Claire, M., Shapiro, M., Emerson, S. U., Purcell, R. H. and Bukh, J, Virology 244 (1), 161-172. (1998)).
The BMS, H77C and J4 L6S strains were used for production of recombinant NS3/4A protease complexes. DNA encoding the recombinant HCV NS3/4A protease complex (amino acids 1027 to 1711) for these strains were manipulated as described by P. Gallinari et al. (see Gallinari P, Paolini C, Brennan D, Nardi C, Steinkuhler C, De Francesco R. Biochemistry. 38(17):5620-32, (1999)). Briefly, a three-lysine solubilizing tail was added at the 3′-end of the NS4A coding region. The cysteine in the P1 position of the NS4A-NS4B cleavage site (amino acid 1711) was changed to a glycine to avoid the proteolytic cleavage of the lysine tag. Furthermore, a cysteine to serine mutation was introduced by PCR at amino acid position 1454 to prevent the autolytic cleavage in the NS3 helicase domain. The variant DNA fragment was cloned in the pET21b bacterial expression vector (Novagen) and the NS3/4A complex was expressed in Escherichia coli strain BL21 (DE3) (Invitrogen) following the protocol described by P. Gallinari et al. (see Gallinari P, Brennan D, Nardi C, Brunetti M, Tomei L, Steinkuhler C, De Francesco R., J Virol. 72(8):6758-69 (1998)) with modifications. Briefly, NS3/4A expression was induced with 0.5 mM Isopropyl β-D-1-thiogalactopyranoside (IPTG) for 22 hr at 20° C. A typical fermentation (10 L) yielded approximately 80 g of wet cell paste. The cells were resuspended in lysis buffer (10 mL/g) consisting of 25 mM N-(2-Hydroxyethyl)Piperazine-N′-(2-Ethane Sulfonic acid) (HEPES), pH7.5, 20% glycerol, 500 mM Sodium Chloride (NaCl), 0.5% Triton-X100, 1 ug/ml lysozyme, 5 mM Magnesium Chloride (MgCl2), 1 ug/ml DnaseI, 5 mM β-Mercaptoethanol (βME), Protease inhibitor—Ethylenediamine Tetraacetic acid (EDTA) free (Roche), homogenized and incubated for 20 mins at 4° C. The homogenate was sonicated and clarified by ultra-centrifugation at 235000 g for lhr at 4° C. Imidazole was added to the supernatant to a final concentration of 15 mM and the pH adjusted to 8.0. The crude protein extract was loaded on a Nickel—Nitrilotriacetic acid (Ni—NTA) column pre-equilibrated with buffer B (25 mM HEPES, pH8.0, 20% glycerol, 500 mM NaCl, 0.5% Triton-X100, 15 mM imidazole, 5 mM βME). The sample was loaded at a flow rate of 1 mL/min. The column was washed with 15 column volumes of buffer C (same as buffer B except with 0.2% Triton-X100). The protein was eluted with 5 column volumes of buffer D (same as buffer C except with 200 mM Imidazole). […]

A value given as a limit tells only on which side of the number the result lay.

This passage reports EC50 and IC50 results from patent publication US6869964B2, “Heterocyclicsulfonamide hepatitis C virus inhibitors” (Bristol-Myers Squibb Company, priority 2002, dated 2005).

T1 sequence (P27958 1027-1657 C1454S): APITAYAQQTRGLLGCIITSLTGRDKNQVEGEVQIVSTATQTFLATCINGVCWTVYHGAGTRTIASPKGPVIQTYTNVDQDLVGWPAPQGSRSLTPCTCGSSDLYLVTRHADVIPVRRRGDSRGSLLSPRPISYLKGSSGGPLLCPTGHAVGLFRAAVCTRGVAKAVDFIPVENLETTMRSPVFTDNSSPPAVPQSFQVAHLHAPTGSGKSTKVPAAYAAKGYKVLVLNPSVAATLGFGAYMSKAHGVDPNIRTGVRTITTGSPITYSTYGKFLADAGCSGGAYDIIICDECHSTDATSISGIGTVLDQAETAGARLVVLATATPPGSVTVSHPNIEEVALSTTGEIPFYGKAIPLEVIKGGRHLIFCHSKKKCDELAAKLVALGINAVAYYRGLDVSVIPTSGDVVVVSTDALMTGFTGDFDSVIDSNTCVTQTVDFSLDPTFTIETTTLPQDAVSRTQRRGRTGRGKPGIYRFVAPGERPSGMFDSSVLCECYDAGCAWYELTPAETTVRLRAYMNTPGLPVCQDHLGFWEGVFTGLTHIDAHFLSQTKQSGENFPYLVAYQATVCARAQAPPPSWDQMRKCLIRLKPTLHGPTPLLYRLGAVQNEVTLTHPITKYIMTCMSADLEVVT
T1 sequence (P27958 1658-1711 partner, looked up, stated change not applied): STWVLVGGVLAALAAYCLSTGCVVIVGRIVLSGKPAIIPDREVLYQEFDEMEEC

Usually EC50 stands for the concentration at which the effect is half-maximal. What is called IC50 is the concentration at which inhibition is half-maximal. Take `C=CC1C[C@]1(NC(=O)[C@@H]1C[C@@H](Oc2cc(-c3ccccc3)nc3cc(OC)ccc23)CN1C(=O)[C@@H](NC(=O)OC(C)(C)C)C(C)(C)C)C(=O)NS(=O)(=O)c1nc(NC(C)=O)sc1C` (stereo partly drawn) [Compound 11, {1-[2-{1-[2-Acetylamino-5-methylthiazole-4-sulfonylaminocarbonyl]-2-vinylcyclopropylcarbamoyl}-4-(7-methoxy-2-phenyl-quinolin-4-yloxy)pyrrolidine-1-carbony]-2,2-dimethylpropyl}carbamic acid tert-butyl ester]: the EC50 in assay [1] was in the range of 1000 to 10000 nM. Besides, the IC50 in assay [2] was below 100 nM.

As to `C=CC1C[C@]1(NC(=O)[C@@H]1C[C@@H](Oc2cc(-c3ccccc3)nc3cc(OC)ccc23)CN1C(=O)[C@@H](NC(=O)OC(C)(C)C)C(C)(C)C)C(=O)NS(=O)(=O)c1cc(Cl)c(Cl)s1` (stereo in doubt) [Compound 8, {1-[2-{1-[4,5-dichlorothiophene-2-sulfonylaminocarbonyl]-2-vinylcyclopropylcarbamoyl}-4-(7-methoxy-2-phenyl-quinolin-4-yloxy)pyrrolidine-1-carbonyl]-2,2-dimethylpropyl}carbamic acid tert-butyl ester], the EC50 in assay [1] fell in the range of 100 to 1000 nM. For the same compound, the IC50 in assay [2] is below 100 nM.

As to `C=CC1C[C@]1(NC(=O)[C@@H]1C[C@@H](Oc2cc(-c3ccccc3)nc3cc(OC)ccc23)CN1C(=O)[C@@H](NC(=O)OC(C)(C)C)C(C)(C)C)C(=O)NS(=O)(=O)c1cc(Br)c(Cl)s1` (stereo in doubt) [Compound 7, {1-[2-{1-[4-Bromo-5-chlorothiophene-2-sulfonylamino-carbonyl]-2-vinylcyclopropylcarbamoyl}-4-(7-methoxy-2-phenyl-quinolin-4-yloxy)pyrrolidine-1-carbonyl]-2,2-dimethylpropyl}carbamic acid tert-butyl ester], in assay [1], the EC50 was 1000 to 10000 nM. The IC50 in assay [2] is below 100 nM.

Consider `C=CC1C[C@]1(NC(=O)[C@@H]1C[C@@H](Oc2cc(-c3ccccc3)nc3cc(OC)ccc23)CN1C(=O)[C@@H](NC(=O)OC(C)(C)C)C(C)(C)C)C(=O)NS(=O)(=O)c1ccc(-c2cc(C(F)(F)F)nn2C)s1` (stereo in doubt) [Compound 17, [1-(4-(7-Methoxy-2-phenyl-quinolin-4-yloxy)-2-{1-[5-(2-methyl-5-trifluoromethyl-2H-pyrazol-3-yl)thiophene-2-sulfonylaminocarbonyl]-2-vinyl-cyclopropylcarbamoyl}-pyrrolidine-1-carbonyl)-2,2-dimethylpropyl]carbamic acid tert-butyl ester], for which the EC50 in assay [1] was 100 to 1000 nM. Also, the IC50 in assay [2] is below 100 nM.

As to `C=CC1C[C@]1(NC(=O)[C@@H]1C[C@@H](Oc2cc(-c3ccccc3)nc3cc(OC)ccc23)CN1C(=O)[C@@H](NC(=O)OC(C)(C)C)C(C)(C)C)C(=O)NS(=O)(=O)c1c(C)noc1C` (stereo in doubt) [Compound 14, {1-[2-[1-(3,5-Dimethylisoxazole-4-sulfonylaminocarbonyl)-2-vinyl-cyclopropylcarbamoyl]-4-(7-methoxy-2-phenyl-quinolin-4-yloxy)-pyrrolidine-1-carbonyl]-2,2-dimethyl-propyl}-carbamic acid tert-butyl ester], in assay [1], the EC50 fell in the range of 100 to 1000 nM. Besides, the IC50 in assay [2] is below 100 nM.

In the case of `C=CC1C[C@]1(NC(=O)[C@@H]1C[C@@H](Oc2cc(-c3ccccc3)nc3cc(OC)ccc23)CN1C(=O)[C@@H](NC(=O)OC(C)(C)C)C(C)(C)C)C(=O)NS(=O)(=O)c1ccc([N+](=O)[O-])s1` (stereo in doubt) [Compound 3, (1-{4-(7-Methoxy-2-phenylquinolin-4-yloxy)-2-[1-(5-Nitrothiophene-2-sulfonylaminocarbonyl)-2-vinyl-cyclopropylcarbamoyl]pyrrolidine-1-carbonyl}-2,2-dimethylpropyl)carbamic acid tert-butyl ester], the EC50 in assay [1] was 100 to 1000 nM. In assay [2], the IC50 is 100 to 1000 nM.
